Laboratory results from paper PMC11163866 (Journal of medicinal chemistry, 2024).
Where a name gives a salt, the structure may show the parent alone.

Legend:
L. mexicana amastigote = type: cell-based; details: Leishmania mexicana, J774.A1, read-out: inhibition at 0.1 μM vs L. mexicana
Plasmodium yoelli = Plasmodium yoelli infection in mice; type: in vivo; details: unpublished results
[1] = In vitro metabolic stability in human liver microsomes; type: in vitro ADME; details: 1 μM; 0.5 mg/mL microsomes; up to 60 min
[2] = In vitro metabolic stability in mouse liver microsomes; type: in vitro ADME; details: 1 μM; 0.5 mg/mL microsomes; up to 60 min
L. mexicana = test: In vivo efficacy, murine model of cutaneous leishmaniasis; set-up: species or system BALB/c mice; details: oral gavage 40–60 mg/kg/d for 10 days
[3] = test system: Salmonella typhimurium TA100 and TA98; test: Ames mutagenicity assay; type: cell-based; details: up to 10 μM, with and without S9

Structure (SMILES) | inhibition of growth at 0.1 µM (L. mexicana amastigote) | efficacy in curing Plasmodium yoelli infections in mice (Plasmodium yoelli) | metabolic stability (t1/2, min) vs HLM [1] | metabolic stability (t1/2, min) vs MLM [2] | in vivo efficacy compared with the other TAs tested (L. mexicana) | Ames mutagenicity result [3]
COC1=CC(c2ccc[nH]2)=N/C1=C\Nc1ccccc1OC(F)(F)F [compound 59, (Z)-N-((4'-Methoxy-1H,5'H-[2,2'-bipyrrol]-5'-ylidene)methyl)-2-(trifluoromethoxy)aniline Hydrochloride] | ~30% |  |  |  |  | 
CCC1=C(CC)/C(=C/N[C@H]2CC[C@H](C)CC2)N=C1c1ccc[nH]1.Cl [compound 95, (1r,4r)-N-((Z)-(3',4'-Diethyl-1H,5'H-[2,2'-bipyrrol]-5'-ylidene)methyl)-4-methylcyclohexan-1-amine Hydrochloride] |  | strong efficacy | 23.3 min | 37.5 min |  | 
C(/NC1CCCCC1)=C1/N=C(c2ccc[nH]2)C2=C1CCCC2.Cl [compound 101, (Z)-N-((3-(1H-Pyrrol-2-yl)-4,5,6,7-tetrahydro-1H-isoindol-1-ylidene)methyl)cyclohexanamine Hydrochloride] |  | strong efficacy | 26.7 min | 33.0 min |  | 
CCc1ccc(C2=N/C(=C\NC3CCCCCC3)C(C)=C2C)[nH]1.Cl [compound 110, (Z)-N-((5-Ethyl-3',4'-dimethyl-1H,5'H-[2,2'-bipyrrol]-5'-ylidene)methyl)cycloheptanamine Hydrochloride] |  | strong efficacy | > 60.0 min | > 60.0 min | greater efficacy than both 95 and 101 | negative
COC1=CC(c2ccc(Cc3ccc(OC)cc3)[nH]2)=N/C1=C\NC1CCCCCC1.Cl [compound 121, (Z)-N-((4'-Methoxy-5-(4-methoxybenzyl)-1H,5'H-[2,2'-bipyrrol]-5'-ylidene)methyl)cycloheptanamine Hydrochloride] |  |  | 25.6 min | 14.8 min |  | 
COC1=CC(c2ccc(Cc3ccc(OC)cc3)[nH]2)=N/C1=C\NC1CCCCCCC1.Cl [compound 122, (Z)-N-((4'-Methoxy-5-(4-methoxybenzyl)-1H,5'H-[2,2'-bipyrrol]-5'-ylidene)methyl)cyclooctanamine Hydrochloride] |  |  | 50.8 min | 16.5 min |  | 
COC1=CC(c2ccc(Cc3ccc(OC)cc3)[nH]2)=N/C1=C\NC12CC3CC(CC(C3)C1)C2.Cl [compound 123, (3s,5s,7s)-N-((Z)-(4'-Methoxy-5-(4-methoxybenzyl)-1H,5'H-[2,2'-bipyrrol]-5'-ylidene)methyl)adamantan-1-amine Hydrochloride] |  |  | > 60.0 min | > 60.0 min |  | 
